Legend:
[1] = system: Salmonella enteriditis S29; test: Fecal slurry fermentation spiked with pathogens: Salmonella; format: cell-based
Description: (§1) Anaerobic fermentation of fecal slurry samples was tested in a BioLector Pro microfluidics mini multifermentor. Faecal slurry samples were collected from breast fed infants and from formula fed infants. These faecal slurry samples were processed by adding 0.6 grams feces in 40 ml Baby Reichardt V.6 medium+mucus+Ammonium sulfate+lactate and acetate. The resulting solutions were inserted to the BioLector Pro microfluidics mini multifermentor. The test legs were supplemented with 3-GL, 2′-FL, 3′-GL+2′-FL, and GOS/FOS. The control leg was supplemented with sterile water.
(§2) In addition the test legs were supplemented with Clostridium difficile C153 (difficile agar), Salmonella enteriditis S29 (XLD agar), Cronobacter sakasakii E71 (chromogenic agar) or Klebsiella pneumonia K2 (Simons citrate inositol agar). For every NDO and for the control also a pathogen free culture was prepared.
(§3) A 32 well plate that can handle low pH was used. The wells of this plate were filled with fecal solution. 2.5% (w/v) of the different sterile carbohydrate solutions (3′-GL, 2′-FL, 2′-FL/3′-GL (2.0+0.5%). and Glucose were added to the fecal slurry according to a template. […]

Klebsiella pneumonia K2 = test: Fecal slurry fermentation spiked with pathogens: Klebsiella; format: cell-based; details: inoculum of baby 2, spiked
Description: as §1, §2, §3

Compound	Salmonella growth ([1]; inoculum of baby 1, spiked)	Salmonella growth ([1]; inoculum of baby 2, spiked)	Klebsiella growth (Klebsiella pneumonia K2)
C[C@@H]1O[C@@H](O[C@H]2[C@H](O[C@H]3[C@H](O)[C@@H](O)C(O)O[C@@H]3CO)O[C@H](CO)[C@H](O)[C@@H]2O)[C@@H](O)[C@H](O)[C@@H]1O (stereo partly drawn) [2′-FL, α-L-Fuc-(1→2)-β-D-Gal-(1→4)-D-Glc]	most restricted	most restricted	
Gal (beta 1-3)-Gal (beta 1-4)-Glc [3′-GL]			most inhibited

Source: patent US20220110985A1, “NUTRITIONAL COMPOSITION COMPRISING 2'FUCOSYLLACTOSE AND 3'GALACTOSYLLACTOSE” (N.V. Nutricia, priority 2019, published 2022)
